Experimental data: patent US20200017495A1, “NOVEL HETEROCYCLIC COMPOUNDS AND THEIR USE IN PREVENTING OR TREATING BACTERIAL INFECTIONS” (priority 2017, published 2020)
Values joined by “and” are separate entries in the source; they are usually repeats but may differ in a detail not shown here. Equal values may be shown once. Read-outs that look alike come from different tables or passages of the source.

Key:
Assay in all cases: MIC of compounds alone and combined with antibacterials, broth microdilution (CLSI)
Assay type in all cases: cell-based
[1] = system: Escherichia coli (ECO) isolates
In short: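 First, log-phase suspensions are brought to 5.10^5 CFU/mL final in ca-MHB; plates then incubate 16-20 h at 35° C in air. Growth is judged visually, giving the compound MIC alone and the antibacterial MIC at each compound concentration.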

[2] = system: Providencia stuartii (PST) isolates
In short: (§1)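 Compounds tested alone or with an antibacterial against genotyped isolates; DMSO dilutions spotted, then log-phase inoculum at 5.10^5 CFU/mL in cation-adjusted Mueller-Hinton broth added. Incubation 16-20 h at 35° C in ambient air. MIC read visually as lowest concentration preventing growth; for combinations, antibacterial MIC determined at each compound concentration.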

[3] = system: Salmonella typhimurium (STY) isolates; settings: STY S3371; AF2 @ 8 μg/mL
In short: as §1

CC1(C)S[C@@H]2[C@H](NC(=O)[C@H](N)c3ccc(O)cc3)C(=O)N2[C@H]1C(=O)O [AMX, Amoxicillin]
MIC ([1]; strain ECO 260096, genotype CTX-M-132): >256 µg/mL | MIC ([1]; strain ECO 260304, genotype CTX-M-15): >256 µg/mL | MIC ([1]; strain ECO 260508, genotype TEM-1, CTX-M-15, OXA-1): >256 µg/mL | MIC ([1]; strain ECO RGN238, genotype OXA-1): >1024 µg/mL | MIC ([1]; strain ECO UFR15, genotype TEM-1, OXA-48): >256 µg/mL | MIC ([1]; strain ECO UFR16, genotype TEM-1, CTX-M-15, OXA-1, OXA-48): >256 µg/mL | MIC ([1]; strain ECO UFR17, genotype TEM-1, CTX-M-15, CMY-2, OXA-1, OXA-181): >256 µg/mL | MIC ([1]; strain ECO UFR18, genotype CTX-M-15, OXA-204): >256 µg/mL | MIC ([1]; strain ECO UFR19, genotype CTX-M-15, CMY-2, OXA-1, OXA-204): >256 µg/mL | MIC ([1]; strain ECO UFR20, genotype SHV-1, CTX-M-15, OXA-1, OXA-232): >256 µg/mL | MIC ([1]; strain ECO UFR32, genotype TEM-1, VEB-1, OXA-10): >256 µg/mL | MIC ([1]; strain ECO UFR39, genotype CTX-M-15, NDM-1): >1024 µg/mL | MIC ([1]; strain ECO UFR41, genotype TEM-1, CTX-M-15, CMY-2, OXA-1, NDM-4): >256 µg/mL | MIC ([1]; strain ECO UFR45, genotype TEM-1, CMY-4, OXA-1, OXA-48, VIM-1): >256 µg/mL | MIC ([1]; strain ECO UFR52, genotype TEM-1, SHV-12, IMP-8): >256 µg/mL | MIC ([1]; strain ECO UFR61O, genotype TEM-1, KPC-2): >256 µg/mL | MIC ([1]; strain ECO UFR62, genotype TEM-1, CTX-M-9, KPC-2): >256 µg/mL | MIC ([1]; strain ECO UFR74, genotype SHV-1, DHA-1): >256 µg/mL | MIC ([1]; strain ECO UFR86, genotype ompC-, ompF-): 16 µg/mL | MIC ([1]; strain ECO UFR174, genotype TEM-1, KPC-2, OXA-1): >128 µg/mL | MIC ([1]; strain ECO UFR175, genotype TEM-1, KPC-2, OXA-9): >128 µg/mL | MIC ([1]; strain ECO UFR176, genotype KPC-3, OXA-9*): >128 µg/mL | MIC ([1]; strain ECO UFR177, genotype TEM-1, CTX-M-15, OXA-1, OXA-2, NDM-1, RmtC, antibiotic alone): >128 µg/mL | MIC ([1]; strain ECO UFR178, genotype TEM-1, CTX-M-15, OXA-9, NDM-1, antibiotic alone): >128 µg/mL | MIC ([1]; strain ECO UFR179, genotype TEM-1, SHV-12, CTX-M-15, NDM-1, antibiotic alone): >128 µg/mL | MIC ([1]; strain ECO UFR180, genotype TEM-1, CMY-30, OXA-1, NDM-1, antibiotic alone): >128 µg/mL | MIC ([1]; strain ECO UFR181, genotype TEM-1, CTX-M-15, NDM-5, antibiotic alone): >128 µg/mL | MIC ([1]; strain ECO UFR182, genotype CTX-M-15, OXA-1, NDM-6, antibiotic alone): >128 µg/mL | MIC ([1]; strain ECO UFR183, genotype CTX-M-15, OXA-1, NDM-7, antibiotic alone): >128 µg/mL | MIC ([1]; strain ECO UFR184, genotype CTX-M-15, CMY-4, OXA-1, OXA-204): >128 µg/mL | MIC ([1]; strain ECO UFR185, genotype OXA-48): >128 µg/mL | MIC ([1]; strain ECO UFR186, genotype TEM-1, CTX-M-14, OXA-48): >128 µg/mL | MIC ([1]; strain ECO UFR187, genotype CTX-M-15, OXA-48): >128 µg/mL | MIC ([1]; strain ECO UFR189, genotype TEM-1, CTX-M-15, OXA-48): >128 µg/mL | MIC ([1]; strain ECO UFR190, genotype CTX-M-24, OXA-48): >128 µg/mL | MIC ([1]; strain ECO UFR191, genotype TEM-1, CTX-M-24, OXA-48): >128 µg/mL | MIC ([1]; strain ECO UFR204, genotype TEM-1, CMY-4, OXA-48, VIM-1, antibiotic alone): >128 µg/mL | MIC ([1]; strain ECO UFR205, genotype CTX-M-15, VIM-4, antibiotic alone): >128 µg/mL | MIC ([1]; strain ECO UFR206, genotype TEM-1, CTX-M-15, OXA-1, VIM-4, antibiotic alone): >128 µg/mL | MIC ([1]; strain ECO UFR207, genotype CTX-M-15): >128 µg/mL | MIC ([1]; strain ECO UFR208, genotype SHV-12): >128 µg/mL | MIC ([1]; strain ECO UFR209, genotype TEM-1, CTX-M-15): >128 µg/mL | MIC ([1]; strain ECO UFR210, genotype SHV-12): >128 µg/mL | MIC ([1]; strain ECO UFR211, genotype TEM-24): >128 µg/mL | MIC ([1]; strain ECO UFR212, genotype CMY-2): >128 µg/mL | MIC ([1]; strain ECO UFR218, genotype TEM-1, SHV-1, CTX-M-15): >128 µg/mL | MIC ([1]; strain ECO UFR252GO, genotype VIM-2, antibiotic alone): >128 µg/mL | MIC ([1]; strain ECO UFR255, genotype NDM-1, antibiotic alone): >128 µg/mL | MIC ATB in combination [2]: 128 µg/mL and >128 µg/mL | MIC ATB in combination ([2]; PST UFR120, CLA @ 4 μg/mL): 8 µg/mL | MIC ATB in combination ([2]; PST UFR121, CLA @ 4 μg/mL): 4 µg/mL | MIC ATB in combination ([2]; PST UFR122, CLA @ 4 μg/mL): 8 µg/mL | MIC ATB in combination ([2]; PST UFR123, CLA @ 4 μg/mL): 16 µg/mL | MIC ATB in combination ([2]; PST UFR125, CLA @ 4 μg/mL): 4 µg/mL | MIC ([2]; strain PST UFR94, genotype CTX-M-14): >128 µg/mL | MIC ([2]; strain PST UFR95, genotype TEM-24): >128 µg/mL | MIC ([2]; strain PST UFR98, genotype TEM-1, CMY-6, OXA-1, NDM-1, RmtC): >128 µg/mL | MIC ([2]; strain PST UFR235, genotype VEB-1): >128 µg/mL | MIC ATB in combination [3]: <0.25 µg/mL
